In patent US7563592B2, “Alizarin-based chromogenic substrates, their uses and composition containing same” (Biomerieux, S.A., priority 1999, dated 2009):

Legend:
Shigella sonnei = assay: β-galactosidase detection on semi-solid medium, clinical and environmental strains (Example 2); format: cell-based; conditions: 50 mg/l + iron citrate 500 mg/l; 18 hours; 10 strains tested
Escherichia coli 115 = assay: β-galactosidase detection in semi-solid Columbia medium (Example 1); format: cell-based
[1] = tested on: 367 different strains collected from clinical and environmental specimens; assay: β-galactosidase detection on semi-solid medium, all strains together (Example 2); format: cell-based; conditions: 18 hours at 37° C.
Serratia odorifera = assay: β-galactosidase detection on semi-solid medium, clinical and environmental strains (Example 2); format: cell-based; conditions: 50 mg/l + iron citrate 500 mg/l; 18 hours; 1 strain tested
Morganella morganii = assay: as above; format: cell-based; conditions: 50 mg/l + iron citrate 500 mg/l; 18 hours; 12 strains tested
Aeromonas caviae = assay: as above; format: cell-based; conditions: 50 mg/l + iron citrate 500 mg/l; 18 hours; 7 strains tested
Enterobacter aerogenes = assay: as above; format: cell-based; conditions: 50 mg/l + iron citrate 500 mg/l; 18 hours; 9 strains tested
Vibrio cholerae = format: cell-based; conditions: 50 mg/l + iron citrate 500 mg/l; 18 hours; 1 strain tested
Providencia rettgeri = assay: β-galactosidase detection on semi-solid medium, clinical and environmental strains (Example 2); format: cell-based; conditions: 50 mg/l + iron citrate 500 mg/l; 18 hours; 3 strains tested
Enterobacter agglomerans = assay: as above; format: cell-based; conditions: 50 mg/l + iron citrate 500 mg/l; 18 hours; 1 strain tested
Shigella boydii = assay: as above; format: cell-based; conditions: 50 mg/l + iron citrate 500 mg/l; 18 hours; 1 strain tested
[2] = tested on: Klebsiella pneumoniae 023; assay: β-galactosidase detection in semi-solid Columbia medium (Example 1); format: cell-based
Shigella flexneri = assay: β-galactosidase detection on semi-solid medium, clinical and environmental strains (Example 2); format: cell-based; conditions: 50 mg/l + iron citrate 500 mg/l; 18 hours; 2 strains tested
Klebsiella ozaenae = assay: as above; format: cell-based; conditions: 50 mg/l + iron citrate 500 mg/l; 18 hours; 3 strains tested
[3] = tested on: Providencia alcalifaciens; assay: as above; format: cell-based; conditions: 50 mg/l + iron citrate 500 mg/l; 18 hours; 3 strains tested
Hafnia alvei = assay: as above; format: cell-based; conditions: 50 mg/l + iron citrate 500 mg/l; 18 hours; 10 strains tested
Aeromonas hydrophila = assay: as above; format: cell-based; conditions: 50 mg/l + iron citrate 500 mg/l; 18 hours; 3 strains tested
Shigella dysenteriae = format: cell-based; conditions: 50 mg/l + iron citrate 500 mg/l; 18 hours; 2 strains tested
Proteus penneri = assay: β-galactosidase detection on semi-solid medium, clinical and environmental strains (Example 2); format: cell-based; conditions: 50 mg/l + iron citrate 500 mg/l; 18 hours; 1 strain tested
Escherichia hermannii = assay: as above; format: cell-based; conditions: 50 mg/l + iron citrate 500 mg/l; 18 hours; 1 strain tested
Yersinia enterocolitica = assay: as above; format: cell-based; conditions: 50 mg/l + iron citrate 500 mg/l; 18 hours; 14 strains tested
Citrobacter diversus = assay: as above; format: cell-based; conditions: 50 mg/l + iron citrate 500 mg/l; 18 hours; 9 strains tested
Citrobacter koseri 059 = assay: Comparison of glucoside substrates in semi-solid Columbia medium (Example 7); format: cell-based; conditions: 0.05 g/l + iron citrate 0.05 g/l
Listeria seeligeri 080 = assay: β-glucosidase detection in API strip wells (Example 6); conditions: 0.12 g/l + iron citrate 0.05 g/l
Listeria innocua 036 = assay: as above; conditions: 0.12 g/l + iron citrate 0.05 g/l
[4] = tested on: Klebsiella pneumoniae 023; assay: as above; conditions: 0.12 g/l + iron citrate 0.05 g/l
eight (8) species tested = assay: β-glucosidase detection in API strip wells, all species together (Example 6); format: cell-based; conditions: of the eight (8) species tested; 0.12 g/l + iron citrate 0.05 g/l
Enterococcus faecium 009 = assay: β-glucosidase detection in API strip wells (Example 6); conditions: 0.12 g/l + iron citrate 0.05 g/l
[5] = tested on: Listeria monocytogenes 022; assay: as above; conditions: 0.12 g/l + iron citrate 0.05 g/l
[6] = tested on: Klebsiella pneumoniae 023; assay: Comparison of glucoside substrates in semi-solid Columbia medium (Example 7); format: cell-based; conditions: 0.05 g/l + iron citrate 0.05 g/l

## O=C1c2ccccc2C(=O)c2c1ccc(O[C@@H]1O[C@H](CO)[C@H](O)[C@H](O)[C@H]1O)c2O [Alizarin-2-β-D-galactoside]
Shigella sonnei
  percentage of positive strains: 100%
Escherichia coli 115; 0.01 g/l + iron citrate, 18 H
  Color: purple
  Intensity: 0.3
Escherichia coli 115; 0.01 g/l + iron citrate, 24 H
  Color: purple
  Intensity: 0.3
Escherichia coli 115; 0.01 g/l + iron citrate, 48 H
  Color: purple
  Intensity: 0.5
Escherichia coli 115; 0.03 g/l + iron citrate, 18 H
  Color: purple
  Intensity: 2.7
Escherichia coli 115; 0.03 g/l + iron citrate, 24 H
  Color: purple
  Intensity: 2.7
Escherichia coli 115; 0.03 g/l + iron citrate, 48 H
  Color: purple
  Intensity: 3
Escherichia coli 115; 0.05 g/l + iron citrate, 18 H
  Color: purple
  Intensity: 3.5
Escherichia coli 115; 0.05 g/l + iron citrate, 24 H
  Color: purple
  Intensity: 3.5
Escherichia coli 115; 0.05 g/l + iron citrate, 48 H
  Color: purple
  Intensity: 3.5
Escherichia coli 115; 0.08 g/l + iron citrate, 18 H
  Color: purple
  Intensity: 4
Escherichia coli 115; 0.08 g/l + iron citrate, 24 H
  Color: purple
  Intensity: 4
Escherichia coli 115; 0.08 g/l + iron citrate, 48 H
  Color: purple
  Intensity: 4
[1]; 50 mg/l + iron citrate 500 mg/l
  color of colonies expressing β-galactosidase activity: purple
[1]; of 367 strains
  strains that selectively hydrolyzed this substrate (not the reference substrate): Eight
Serratia odorifera
  percentage of positive strains: 100%
Morganella morganii
  percentage of positive strains: 0%
Aeromonas caviae
  percentage of positive strains: 86%
Enterobacter aerogenes
  percentage of positive strains: 100%
Vibrio cholerae
  percentage of positive strains: 100%
Providencia rettgeri
  percentage of positive strains: 0%
Enterobacter agglomerans
  percentage of positive strains: 100%
Shigella boydii
  percentage of positive strains: 0%
[2]; 0.03 g/l + iron citrate, 18 H
  Color: purple
  Intensity: 0.3
[2]; 0.03 g/l + iron citrate, 24 H
  Color: purple
  Intensity: 0.3
[2]; 0.03 g/l + iron citrate, 48 H
  Color: purple
  Intensity: 0.5
[2]; 0.05 g/l + iron citrate, 18 H
  Color: purple
  Intensity: 0.8
[2]; 0.05 g/l + iron citrate, 24 H
  Color: purple
  Intensity: 1
[2]; 0.05 g/l + iron citrate, 48 H
  Color: purple
  Intensity: 1
[2]; 0.08 g/l + iron citrate, 18 H
  Color: purple
  Intensity: 1.5
[2]; 0.08 g/l + iron citrate, 24 H
  Color: purple
  Intensity: 1.5
[2]; 0.08 g/l + iron citrate, 48 H
  Color: purple
  Intensity: 1.7
Shigella flexneri
  percentage of positive strains: 0%
Klebsiella ozaenae
  percentage of positive strains: 100%
[3]
  percentage of positive strains: 0%
Hafnia alvei
  percentage of positive strains: 80%
Aeromonas hydrophila
  percentage of positive strains: 100%
Shigella dysenteriae
  percentage of positive strains: 0%
Proteus penneri
  percentage of positive strains: 0%
Escherichia hermannii
  percentage of positive strains: 100%
Yersinia enterocolitica
  percentage of positive strains: 64%
Citrobacter diversus
  percentage of positive strains: 89%

## O=C1c2ccccc2C(=O)c2c1ccc(O[C@@H]1O[C@H](CO)[C@@H](O)[C@H](O)[C@H]1O)c2O [Alizarin-2-β-D-glucoside]
Citrobacter koseri 059; 18 H
  Color: Mauve
  Intensity: 2 arbitrary units
Citrobacter koseri 059; 24 H
  Color: Mauve
  Intensity: 3 arbitrary units
Citrobacter koseri 059; 48 H
  Color: Mauve
  Intensity: 3.5 arbitrary units
Listeria seeligeri 080; 4 H
  Color observed: Purple
Listeria seeligeri 080; 24 H
  Color observed: Purple
Listeria innocua 036; 4 H
  Color observed: Purple
Listeria innocua 036; 24 H
  Color observed: Purple
[4]; 4 H
  Color observed: Purple
[4]; 24 H
  Color observed: Purple
Eight (8) species tested
  species in which activity was detected: 7 species
Enterococcus faecium 009; 4 H
  Color observed: Purple
Enterococcus faecium 009; 24 H
  Color observed: Purple
[5]; 4 H
  Color observed: Purple
[5]; 24 H
  Color observed: Purple
[6]; 18 H
  Color: Purple
  Intensity: 3.5 arbitrary units
[6]; 24 H
  Color: Purple
  Intensity: 4 arbitrary units
[6]; 48 H
  Color: Purple
  Intensity: 4 arbitrary units
